The results in this text go back to patent US20240252488A1 (KOREA RESEARCH INSTITUTE OF CHEMICAL TECHNOLOGY, priority 2020, published 2024).

One assay has as its system FADD−/− Jurkat cells. Nature of the assay: Necroptosis inhibition assay, TNF-α-induced necroptosis (CellTiter-Glo 2.0). In kind it is cell-based, human. To be noted: TNF-α 15 ng/mL; for Necroptosis inhibition assay (Rescue %) 1 μM: compound 1 μM; for Necroptosis inhibition assay (Rescue %) 10 μM: compound 10 μM. Put shortly:
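Cells at 5.0×10^5 cells/mL were pretreated with compound (final 0.1, 1 and 10 μM) for 30 minutes at room temperature, then given TNF-α at 15 ng/mL final. After 20 to 24 hours at 37° C, 5% CO2, viability was read as ATP luminescence to calculate cytotoxicity and necroptosis inhibition rate.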
For orientation: Cellular ATP, detected with luciferase, serves as a proxy for viable cell number.

The target of assay [1] is T1, MLKL (Homo sapiens, UniProt Q8NB16).
T1 sequence (Q8NB16 1-471): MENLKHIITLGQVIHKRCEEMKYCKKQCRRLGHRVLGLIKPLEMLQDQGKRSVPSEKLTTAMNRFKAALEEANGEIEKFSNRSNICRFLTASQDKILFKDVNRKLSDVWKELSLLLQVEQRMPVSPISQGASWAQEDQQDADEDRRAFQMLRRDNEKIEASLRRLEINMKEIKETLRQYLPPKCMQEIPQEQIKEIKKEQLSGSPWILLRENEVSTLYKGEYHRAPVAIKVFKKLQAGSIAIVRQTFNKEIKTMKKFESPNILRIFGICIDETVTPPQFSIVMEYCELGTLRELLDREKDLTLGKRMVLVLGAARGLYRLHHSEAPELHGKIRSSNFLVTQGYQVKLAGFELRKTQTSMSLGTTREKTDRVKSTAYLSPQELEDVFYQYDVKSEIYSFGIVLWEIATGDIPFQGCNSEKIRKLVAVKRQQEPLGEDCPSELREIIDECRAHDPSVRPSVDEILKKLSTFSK
Nature of the assay: MLKL degradation assay in HepG2 cell line (western blot). In kind it is cell-based. The arrangement: endogenous in cells; host or cells: HepG2 or HaCaT. The note with it: cell line not given; for Degradation assay (Degradation %) 1 μM: compound 1 μM; for Degradation assay (Degradation %) 10 μM: compound 10 μM. Put shortly: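 HepG2 cells were exposed to compound at a final 1 or 10 μM for 20-24 hours at 37 °C, 5% CO2. RIPA lysates were normalized by BCA assay, 10-15 μg protein resolved by SDS-PAGE, and MLKL levels detected by western blot with chemiluminescence.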
For orientation: A western blot detects proteins with antibodies after separation by electrophoresis.

In assay [2] the target is T1, MLKL. Nature of the assay: Measurement of binding affinity with MLKL receptor (competitive binding assay, Kd). The arrangement: made in house; host or cells: HEK 293 cell line (T7 phage in E. coli BL21-derived host is also described). The procedure, abridged: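 qPCR of MLKL eluted from liganded beads served as the read-out, from which Kd was derived. The protein was made in HEK 293 cells with a DNA tag, and test compounds competed with the bead-bound ligand at 0.9% final DMSO.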

Turning to `Nc1ncc(-c2cnn(C3CCN(CC4CCN(CC5CCN(C(=O)CNc6ccc7c(c6)C(=O)N(C6CCC(=O)NC6=O)C7=O)CC5)CC4)CC3)c2)nc1C(=O)O[C@@H](C(=O)Nc1ccc(F)cc1)c1ccccc1` (stereo partly drawn) [TDH-426, (R)-2-((4-fluorophenyl)amino)-2-oxo-1-phenylethyl 3-amino-6-(1-(1-((1-((1-((2-(2,6-dioxopiperidin-3-yl)-1,3-dioxoisoindolin-5-yl)glycyl)piperidin-4-yl)methyl)piperidin-4-yl)methyl)piperidin-4-yl)-1H-pyrazol-4-yl)pyrazine-2-carboxylate], the “Necroptosis inhibition assay (Rescue %) 1 μM” value in the assay with FADD−/− Jurkat cells (FADD−/− Jurkat cells) came out at 55.42%. In addition, on MLKL [1], the “Degradation assay (Degradation %) 1 μM” value is on record as 18.62% and the “Degradation assay (Degradation %) 10 μM” value amounted to 57.41%. Moreover, at MLKL [2], the Kd is 1.2 nM.

For the compound `Nc1ncc(-c2cnn(C3CCN(CCOC4CCN(C(=O)Cc5cccc(NC6=CC(=O)N(C7CCC(=O)NC7=O)C6=O)c5)CC4)CC3)c2)nc1C(=O)O[C@@H](C(=O)Nc1ccc(F)cc1)c1ccccc1` (stereo partly drawn) [TDH-496, (R)-2-((4-fluorophenyl)amino)-2-oxo-1-phenylethyl 3-amino-6-(1-(1-(2-((1-(2-(3-((1-(2,6-dioxopiperidin-3-yl)-2,5-dioxo-2,5-dihydro-1H-pyrrol-3-yl)amino)phenyl)acetyl)piperidin-4-yl)oxy)ethyl)piperidin-4-yl)-1H-pyrazol-4-yl)pyrazine-2-carboxylate], in the assay on FADD−/− Jurkat cells (FADD−/− Jurkat cells), the “Necroptosis inhibition assay (Rescue %) 1 μM” value was found to be 27.23% and the “Necroptosis inhibition assay (Rescue %) 10 μM” value was determined as 7.85%. For the same compound, at MLKL [1], the “Degradation assay (Degradation %) 1 μM” value is on record as 87.42% and the “Degradation assay (Degradation %) 10 μM” value is 81.07%. Moreover, the Kd on MLKL [2] was determined as 2.2 nM.

Take `Nc1ncc(-c2cnn(C3CCN(CCCN4CCN(C(=O)COc5ccc6c(c5)C(=O)N(C5CCC(=O)NC5=O)C6=O)CC4)CC3)c2)nc1C(=O)OC(C(=O)Nc1ccc(F)cc1)c1ccccc1` (stereo not shown) [TDH-244, 2-((4-fluorophenyl)amino)-2-oxo-1-phenylethyl 3-amino-6-(1-(1-(3-(4-(2-((2-(2,6-dioxopiperidin-3-yl)-1,3-dioxoisoindolin-5-yl)oxy)acetyl)piperazin-1-yl)propyl)piperidin-4-yl)-1H-pyrazol-4-yl)pyrazine-2-carboxylate]: in the assay on FADD−/− Jurkat cells, the “Necroptosis inhibition assay (Rescue %) 1 μM” value is recorded as 92.11% and the “Necroptosis inhibition assay (Rescue %) 10 μM” value is reported as 65.67%. Besides, at MLKL [1], the “Degradation assay (Degradation %) 1 μM” value was found to be 75.95% and the “Degradation assay (Degradation %) 10 μM” value is 66.16%. On MLKL [2], this compound showed a Kd of 1.3 nM.

`Nc1ncc(-c2cnn(C3CCN(C(=O)c4cn(C5CCN(C(=O)COc6cccc7c6C(=O)N(C6CCC(=O)NC6=O)C7=O)CC5)cn4)CC3)c2)nc1C(=O)O[C@@H](C(=O)Nc1ccc(F)cc1)c1ccccc1` (stereo partly drawn) [TDH-354, (R)-2-((4-fluorophenyl)amino)-2-oxo-1-phenylethyl 3-amino-6-(1-(1-(1-(1-(2-((2-(2,6-dioxopiperidin-3-yl)-1,3-dioxoisoindolin-4-yl)oxy)acetyl)piperidin-4-yl)-1H-imidazole-4-carbonyl)piperidin-4-yl)-1H-pyrazol-4-yl)pyrazine-2-carboxylate]: in the assay with FADD−/− Jurkat cells, the “Necroptosis inhibition assay (Rescue %) 1 μM” value is on record as 31.96% and the “Necroptosis inhibition assay (Rescue %) 10 μM” value is given as 35.2%. At MLKL [1], the “Degradation assay (Degradation %) 1 μM” value was determined as 68.16% and the “Degradation assay (Degradation %) 10 μM” value is 66.72%. At MLKL [2], this compound registered a Kd of 1.4 nM.

Regarding `Nc1ncc(-c2cnn(C3CCN(CCOC4CCN(C(=O)c5cccc(C(=O)NC6CCC(=O)NC6=O)c5)CC4)CC3)c2)nc1C(=O)O[C@@H](C(=O)Nc1ccc(F)cc1)c1ccccc1` (stereo partly drawn) [TDH-545, (R)-2-((4-fluorophenyl)amino)-2-oxo-1-phenylethyl 3-amino-6-(1-(1-(2-((1-(3-((2,6-dioxopiperidin-3-yl)carbamoyl)benzoyl)piperidin-4-yl)oxy)ethyl)piperidin-4-yl)-1H-pyrazol-4-yl)pyrazine-2-carboxylate], in the assay on FADD−/− Jurkat cells (FADD−/− Jurkat cells), the “Necroptosis inhibition assay (Rescue %) 1 μM” value is 32.16% and the “Necroptosis inhibition assay (Rescue %) 10 μM” value came out at 41.07%. For the same compound, on MLKL [1], the “Degradation assay (Degradation %) 1 μM” value is listed as 65.64% and the “Degradation assay (Degradation %) 10 μM” value is reported as 74.02%. This compound had a Kd at MLKL [2] of 0.28 nM.

In the case of `Nc1ncc(-c2cnn(C3CCN(CC4CN(C(=O)COc5ccc6c(c5)C(=O)N(C5CCC(=O)NC5=O)C6=O)CCO4)CC3)c2)nc1C(=O)O[C@@H](C(=O)Nc1ccc(F)cc1)c1ccccc1` (stereo partly drawn) [TDH-390, (R)-2-((4-fluorophenyl)amino)-2-oxo-1-phenylethyl 3-amino-6-(1-(1-((4-(2-((2-(2,6-dioxopiperidin-3-yl)-1,3-dioxoisoindolin-5-yl)oxy)acetyl)morpholin-2-yl)methyl)piperidin-4-yl)-1H-pyrazol-4-yl)pyrazine-2-carboxylate], in the assay with FADD−/− Jurkat cells, the “Necroptosis inhibition assay (Rescue %) 1 μM” value was 46.50% and the “Necroptosis inhibition assay (Rescue %) 10 μM” value is 36.13%. Besides, on MLKL [1], the “Degradation assay (Degradation %) 1 μM” value came out at 80.07% and the “Degradation assay (Degradation %) 10 μM” value stood at 93.00%. The same compound came in with a Kd on MLKL [2] of 2.6 nM.

For the compound `Nc1ncc(-c2cnn(C3CCN(C(=O)CCC4CCN(C(=O)C5CCN(c6cccc7nnn(C8CCC(=O)NC8=O)c(=O)c67)CC5)CC4)CC3)c2)nc1C(=O)O[C@@H](C(=O)Nc1ccc(F)cc1)c1ccccc1` (stereo partly drawn) [TDH-435, (R)-2-((4-fluorophenyl)amino)-2-oxo-1-phenylethyl 3-amino-6-(1-(1-(3-(1-(1-(3-(2,6-dioxopiperidin-3-yl)-4-oxo-3,4-dihydrobenzo[d][1,2,3]triazin-5-yl)piperidine-4-carbonyl)piperidin-4-yl)propanoyl)piperidin-4-yl)-1H-pyrazol-4-yl)pyrazine-2-carboxylate], in the assay with FADD−/− Jurkat cells (FADD−/− Jurkat cells), the “Necroptosis inhibition assay (Rescue %) 1 μM” value was 18.26% and the “Necroptosis inhibition assay (Rescue %) 10 μM” value is 11.49%. Further, at MLKL [1], the “Degradation assay (Degradation %) 1 μM” value is 79.73% and the “Degradation assay (Degradation %) 10 μM” value turned out to be 64.92%. Moreover, the affinity on MLKL [2], expressed as Kd, was 1.8 nM.

`Nc1ncc(-c2cnn(C3CCN(C(=O)COC4CCN(c5ccc6c(c5)C(=O)N(C5CCC(=O)NC5=O)C6=O)CC4)CC3)c2)nc1C(=O)O[C@@H](C(=O)Nc1ccc(F)cc1)c1ccccc1` (stereo partly drawn) [TDH-400, (R)-2-((4-fluorophenyl)amino)-2-oxo-1-phenylethyl 3-amino-6-(1-(1-(2-((1-(2-(2,6-dioxopiperidin-3-yl)-1,3-dioxoisoindolin-5-yl)piperidin-4-yl)oxy)acetyl)piperidin-4-yl)-1H-pyrazol-4-yl)pyrazine-2-carboxylate]: in the assay with FADD−/− Jurkat cells, the “Necroptosis inhibition assay (Rescue %) 1 μM” value came out at 27.80% and the “Necroptosis inhibition assay (Rescue %) 10 μM” value was determined as 28.44%. For the same compound, at MLKL [1], the “Degradation assay (Degradation %) 1 μM” value was determined as 82.22% and the “Degradation assay (Degradation %) 10 μM” value was 74.77%. At MLKL [2], the affinity, expressed as Kd, was 4.4 nM.

Turning to `Nc1ncc(-c2cnn(C3CCN(CCCCCCCCCCNC(=O)C4CCN(c5ccc6c(c5)C(=O)N(C5CCC(=O)NC5=O)C6=O)CC4)CC3)c2)nc1C(=O)O[C@@H](C(=O)Nc1ccc(F)cc1)c1ccccc1` (stereo partly drawn) [TDH-157, (R)-2-((4-fluorophenyl)amino)-2-oxo-1-phenylethyl 3-amino-6-(1-(1-(10-(1-(2-(2,6-dioxopiperidin-3-yl)-1,3-dioxoisoindolin-5-yl)piperidine-4-carboxamido)decyl)piperidin-4-yl)-1H-pyrazol-4-yl)pyrazine-2-carboxylate], in the assay on FADD−/− Jurkat cells, the “Necroptosis inhibition assay (Rescue %) 1 μM” value was 37.7% and the “Necroptosis inhibition assay (Rescue %) 10 μM” value turned out to be 45.37%. Also, on MLKL [1], the “Degradation assay (Degradation %) 1 μM” value was found to be 62.45% and the “Degradation assay (Degradation %) 10 μM” value was 64.73%. Also, the Kd at MLKL [2] was found to be 47 nM.

As to `Nc1ncc(-c2cnn(C3CCN(CCOC4CCN(C(=O)CCc5ccc6c(c5)C(=O)N(C5CCC(=O)NC5=O)C6=O)CC4)CC3)c2)nc1C(=O)O[C@@H](C(=O)Nc1ccc(F)cc1)c1ccccc1` (stereo partly drawn) [TDH-379, (R)-2-((4-fluorophenyl)amino)-2-oxo-1-phenylethyl 3-amino-6-(1-(1-(2-((1-(3-(2-(2,6-dioxopiperidin-3-yl)-1,3-dioxoisoindolin-5-yl)propanoyl)piperidin-4-yl)oxy)ethyl)piperidin-4-yl)-1H-pyrazol-4-yl)pyrazine-2-carboxylate], in the assay with FADD−/− Jurkat cells, the “Necroptosis inhibition assay (Rescue %) 1 μM” value worked out at 36.70% and the “Necroptosis inhibition assay (Rescue %) 10 μM” value was 28.98%. Further, on MLKL [1], the “Degradation assay (Degradation %) 1 μM” value is 69.78% and the “Degradation assay (Degradation %) 10 μM” value is recorded as 88.75%. In addition, at MLKL [2], the Kd stood at 2.9 nM.

One may read the Kd as the free concentration of one partner at which half of the binding sites on the other are occupied at equilibrium, for simple one-to-one binding. A high value points to weaker binding.
